Assay results reported in paper PMC3781304 (American Journal of Cardiovascular Drugs, 2013).
Entries after “also recorded” stand apart in the source; their conditions may differ.

Columns and labels:
[1] = Amiodarone study: safety, treatment-emergent adverse events; format: in vivo, healthy volunteers (human)
[2] = Atorvastatin study: safety, treatment-emergent adverse events
[3] = Digoxin study: safety, treatment-emergent adverse events; details: for Fecal occult bleeding (TEAE): printed under most frequent and under bleeding-related TEAEs
[4] = Digoxin drug-drug interaction study: edoxaban pharmacokinetics
[5] = Dronedarone drug-drug interaction study: edoxaban pharmacokinetics
[6] = Dronedarone study: safety, treatment-emergent adverse events
[7] = Verapamil drug-drug interaction study: edoxaban pharmacokinetics
[8] = Tolerability across the 6 studies; format: in vivo, healthy subjects (human); details: edoxaban alone or coadministered with the 6 cardiovascular drugs
[9] = Verapamil study: safety, treatment-emergent adverse events
[10] = Edoxaban administered alone, pharmacokinetics across the 6 studies
[11] = cited from earlier work
[12] = Atorvastatin drug-drug interaction study: edoxaban pharmacokinetics; details: human, in vivo, 60 mg
[13] = Amiodarone drug-drug interaction study: edoxaban pharmacokinetics; details: human, in vivo, 60 mg
[14] = Quinidine study: safety, treatment-emergent adverse events; details: for Fecal occult bleeding (TEAE): printed under most frequent and under bleeding-related TEAEs
[15] = Quinidine drug-drug interaction study: edoxaban pharmacokinetics

For `CCCCc1oc2ccccc2c1C(=O)c1cc(I)c(OCCN(CC)CC)c(I)c1` [Amiodarone, amiodarone], the “Contact dermatitis (TEAE)” value [1] was 2 (6.9%) n (%), the “Diarrhea (TEAE)” value [1] was 0 n (%) and the “Fecal occult bleeding (bleeding-related TEAE)” value [1] was 0 n (%). For the same compound, the “Gingival bleeding (bleeding-related TEAE)” value [1] was 0 n (%), the “Menorrhagia (bleeding-related TEAE)” value [1] was 0 n (%) and the “Pain in extremity (TEAE)” value [1] was 0 n (%). For the same compound, the “Subjects reporting ≥1 TEAE” value [1] was 7 (24.1 %) n (%) and the “Subjects reporting ≥1 treatment-related TEAE” value [1] was 1 (3.4 %) n (%).
In the case of `CC(C)c1c(C(=O)Nc2ccccc2)c(-c2ccccc2)c(-c2ccc(F)cc2)n1CC[C@@H](O)C[C@@H](O)CC(=O)O` [Atorvastatin, atorvastatin], the “Constipation (TEAE)” value [2] is reported as 2 (6.3%) n (%), the “Dysmenorrhea (bleeding-related TEAE)” value [2] is reported as 0 n (%) and the “Fecal occult bleeding (bleeding-related TEAE)” value [2] is reported as 0 n (%). The “Nasal congestion (TEAE)” value [2] was 1 (3.1%) n (%), the “Pharyngolaryngeal pain (TEAE)” value [2] was 1 (3.1%) n (%) and the “Subjects reporting ≥1 TEAE” value [2] was 6 (18.8%) n (%). The “Subjects reporting ≥1 treatment-related TEAE” value [2] was 3 (9.4%) n (%).
With `C[C@H]1O[C@@H](O[C@H]2[C@@H](O)C[C@H](O[C@H]3[C@@H](O)C[C@H](O[C@H]4CC[C@@]5(C)[C@H](CC[C@@H]6[C@@H]5C[C@@H](O)[C@]5(C)[C@@H](C7=CC(=O)OC7)CC[C@]65O)C4)O[C@@H]3C)O[C@@H]2C)C[C@H](O)[C@@H]1O` [Digoxin, digoxin] the “Dizziness (TEAE)” value [3] was 0 n (%), the “Headache (TEAE)” value [3] was 2 (8.3 %) n (%) and the “Nausea (TEAE)” value [3] was 1 (4.2 %) n (%). The “Subjects reporting ≥1 TEAE” value [3] was 8 (33.3 %) n (%), the “Subjects reporting ≥1 treatment-related TEAE” value [3] was 1 (4.2 %) n (%) and the “Fecal occult bleeding (TEAE)” value [3] was 3 (12.5 %) n (%). For the same compound, the “Effect of coadministration on edoxaban exposure/PK (in words)” value ([4]; digoxin study) was “minimal effects; also recorded: relatively minor effects; also recorded: did not significantly affect exposure”.
With `CCCCc1oc2ccc(NS(C)(=O)=O)cc2c1C(=O)c1ccc(OCCCN(CCCC)CCCC)cc1` [Dronedarone, dronedarone] the “Effect of coadministration on edoxaban exposure (in words)” value (“Effect … on edoxaban exposure (in words)” for short) ([5]; dronedarone study) was “increased edoxaban exposure; also recorded: significantly increased exposure”, the “Bleeding-related TEAEs” value [6] was 0 n (%) and the “Headache (TEAE)” value [6] was 0 n (%). The “Subjects reporting ≥1 TEAE” value [6] was 4 (11.8 %) n (%) and the “Subjects reporting ≥1 treatment-related TEAE” value [6] was 1 (2.9 %) n (%).
In the case of `CN1CCc2nc(C(=O)N[C@@H]3C[C@@H](C(=O)N(C)C)CC[C@@H]3NC(=O)C(=O)Nc3ccc(Cl)cn3)sc2C1` [Edoxaban, edoxaban], the AUC(0-t) ([7]; human, in vivo, 60 mg) is reported as 1440 ng·h/mL, the Cmax ([7]; human, in vivo, 60 mg) is reported as 226 ng/mL and the Tmax ([7]; human, in vivo, 60 mg) is reported as 1.48 h. For the same compound, the concentration at 24 h ([7]; human, in vivo, 60 mg) was 11 ng/mL, the half-life ([7]; human, in vivo, 60 mg) was 7.43 h and the “Tolerability (in words)” value [8] was “well tolerated”. The “Constipation (TEAE)” value [9] was 1 (3.0 %) n (%), the “Epistaxis (bleeding-related TEAE)” value [9] was 0 n (%) and the “Fecal occult bleeding (bleeding-related TEAE)” value [9] was 1 (3.0 %) n (%). The “Headache (TEAE)” value [9] was 0 n (%), the “Menorrhagia (bleeding-related TEAE)” value [9] was 0 n (%) and the “Occular hyperemia (TEAE)” value [9] was 0 n (%). For the same compound, the “Subjects reporting ≥1 TEAE” value [9] was 4 (12.1 %) n (%), the “Subjects reporting ≥1 treatment-related TEAE” value [9] was 1 (3.0 %) n (%) and the “Time of peak edoxaban concentrations postdose” value ([10]; across the studies) was 1 to 3 h. For the same compound, the AUC(0-inf) ([10]; human, in vivo, 60 mg) was 1580 to 1970 ng·h/mL, the Cmax ([10]; human, in vivo, 60 mg) was 223 to 296 ng/mL and the “Constipation (TEAE)” value [2] was 0 n (%). The “Dysmenorrhea (bleeding-related TEAE)” value [2] was 1 (3.1%) n (%), the “Fecal occult bleeding (bleeding-related TEAE)” value [2] was 2 (6.3%) n (%) and the “Nasal congestion (TEAE)” value [2] was 0 n (%). The “Pharyngolaryngeal pain (TEAE)” value [2] was 0 n (%), the “Subjects reporting ≥1 TEAE” value [2] was 4 (13.3%) n (%) and the “Subjects reporting ≥1 treatment-related TEAE” value [2] was 1 (3.3%) n (%). For the same compound, the “Systemically absorbed drug eliminated via renal excretion” value [11] was “approximately 50%”, the “Mean terminal elimination half-life (t½)” value ([11]; healthy volunteers) was 8.75 to 10.4 h and the “Time of peak concentrations postdose” value ([11]; healthy volunteers) was 1 to 2 h. The AUC(0-inf) [12] was 1970 ng·h/mL, the Cmax [12] was 282 ng/mL and the Tmax [12] was 1.02 h. The concentration at 24 h [12] was 12.6 ng/mL, the half-life [12] was 12 h and the AUC(0-inf) [13] was 1740 ng·h/mL. It also gave an AUC(0-t) [13] of 1720 ng·h/mL, a Cmax [13] of 251 ng/mL and a half-life [13] of 12.2 h. For the same compound, the half-life ([5]; human, in vivo, 60 mg) was 10.2 h, the “Blood creatinine increased (TEAE)” value [14] was 0 n (%) and the “Chest pain (TEAE)” value [14] was 1 (2.7 %) n (%). The “Epistaxis (bleeding-related TEAE)” value [14] was 0 n (%), the “Headache (TEAE)” value [14] was 0 n (%) and the “Hematochezia (bleeding-related TEAE)” value [14] was 1 (2.7 %) n (%). The “Irregular menstruation (bleeding-related TEAE)” value [14] was 1 (2.7 %) n (%), the “Menorrhagia (bleeding-related TEAE)” value [14] was 1 (2.7 %) n (%) and the “Nausea (TEAE)” value [14] was 0 n (%). The “Subjects reporting ≥1 TEAE” value [14] was 5 (13.5 %) n (%), the “Subjects reporting ≥1 treatment-related TEAE” value [14] was 3 (8.1 %) n (%) and the “Fecal occult bleeding (TEAE)” value [14] was 2 (5.4 %) n (%). For the same compound, the “Dizziness (TEAE)” value [3] was 1 (4.2 %) n (%), the “Headache (TEAE)” value [3] was 0 n (%) and the “Nausea (TEAE)” value [3] was 1 (4.2 %) n (%). The “Subjects reporting ≥1 TEAE” value [3] was 19 (79.2 %) n (%), the “Subjects reporting ≥1 treatment-related TEAE” value [3] was 1 (4.2 %) n (%) and the “Fecal occult bleeding (TEAE)” value [3] was 1 (4.2 %) n (%). The AUC ([4]; human, in vivo, 60 mg) was 1960 ng·h/mL, the concentration at 24 h ([4]; human, in vivo, 60 mg) was 24.5 ng/mL and the half-life ([4]; human, in vivo, 60 mg) was 9.83 h. It also gave an AUC(0-inf) ([15]; human, in vivo, 60 mg) of 1580 ng·h/mL, a Cmax ([15]; human, in vivo, 60 mg) of 223 ng/mL and a Tmax ([15]; human, in vivo, 60 mg) of 1.48 h. For the same compound, the concentration at 24 h ([15]; human, in vivo, 60 mg) was 11 ng/mL, the half-life ([15]; human, in vivo, 60 mg) was 6.43 h and the AUC(0-t) ([15]; human, in vivo, 60 mg, Edoxaban AUC0–24, quinidine study, mean (SD)) was 1450 ng·h/mL. The AUC(0-t) ([15]; human, in vivo, 60 mg, Edoxaban AUClast, quinidine study, mean (SD)) was 1440 ng·h/mL, the “Edoxaban AUC0–24” value ([15]; quinidine study, mean (SD)) was 1449.2 (328.6) ng·h/mL and the “Bleeding-related TEAEs” value [6] was 0 n (%). The “Headache (TEAE)” value [6] was 0 n (%), the “Subjects reporting ≥1 TEAE” value [6] was 0 n (%) and the “Subjects reporting ≥1 treatment-related TEAE” value [6] was 0 n (%). For the same compound, the “Contact dermatitis (TEAE)” value [1] was 0 n (%), the “Diarrhea (TEAE)” value [1] was 1 (3.3 %) n (%) and the “Fecal occult bleeding (bleeding-related TEAE)” value [1] was 0 n (%). The “Gingival bleeding (bleeding-related TEAE)” value [1] was 0 n (%), the “Menorrhagia (bleeding-related TEAE)” value [1] was 0 n (%) and the “Pain in extremity (TEAE)” value [1] was 1 (3.3 %) n (%). For the same compound, the “Subjects reporting ≥1 TEAE” value [1] was 5 (16.7 %) n (%).
In the case of `C=C[C@H]1C[N@@]2CC[C@H]1C[C@@H]2[C@@H](O)c1ccnc2ccc(OC)cc12` [Quinidine, quinidine], the “Blood creatinine increased (TEAE)” value [14] is reported as 1 (2.8 %) n (%), the “Chest pain (TEAE)” value [14] is reported as 0 n (%) and the “Epistaxis (bleeding-related TEAE)” value [14] is reported as 1 (2.8 %) n (%). For the same compound, the “Headache (TEAE)” value [14] was 3 (8.3 %) n (%), the “Hematochezia (bleeding-related TEAE)” value [14] was 0 n (%) and the “Irregular menstruation (bleeding-related TEAE)” value [14] was 0 n (%). For the same compound, the “Menorrhagia (bleeding-related TEAE)” value [14] was 0 n (%), the “Nausea (TEAE)” value [14] was 2 (5.6 %) n (%) and the “Subjects reporting ≥1 TEAE” value [14] was 11 (30.6 %) n (%). For the same compound, the “Subjects reporting ≥1 treatment-related TEAE” value [14] was 4 (11.1 %) n (%), the “Subjects withdrawn with QTc prolongation” value ([14]; after quinidine dosing) was 1 subject and the “Fecal occult bleeding (TEAE)” value [14] was 0 n (%). For the same compound, the “Effect … on edoxaban exposure (in words)” value ([15]; quinidine study) was “increased edoxaban exposure; also recorded: significantly increased exposure”.
With `COc1ccc(CCN(C)CCCC(C#N)(c2ccc(OC)c(OC)c2)C(C)C)cc1OC` (stereo not drawn) [Verapamil, verapamil] the “Effect … on edoxaban exposure (in words)” value ([7]; verapamil study) was “increased edoxaban exposure; also recorded: significantly increased exposure”, the “Constipation (TEAE)” value [9] was 4 (12.1 %) n (%) and the “Epistaxis (bleeding-related TEAE)” value [9] was 0 n (%). For the same compound, the “Fecal occult bleeding (bleeding-related TEAE)” value [9] was 0 n (%), the “Headache (TEAE)” value [9] was 3 (9.1 %) n (%) and the “Menorrhagia (bleeding-related TEAE)” value [9] was 1 (3.0 %) n (%). For the same compound, the “Occular hyperemia (TEAE)” value [9] was 1 (3.0 %) n (%), the “Subjects reporting ≥1 TEAE” value [9] was 13 (39.4 %) n (%) and the “Subjects reporting ≥1 treatment-related TEAE” value [9] was 9 (27.2 %) n (%). The “Subjects withdrawn with abnormal ECG” value ([9]; following verapamil monotherapy) was 3 subjects.
